This experiment concerns iniA. The experiment is classed as cell-based, BCG.

Turning to `NNC(=O)c1ccncc1` [isoniazid], the “Induction of iniA in isoniazid resistant BCG strain” value is on record as “Lack of iniA induction” and the “Induction of iniA in isoniazid susceptible BCG strain” value is recorded as “seen only in the susceptible BCG strain”.

For the origin of these results see US6821769B2, “IniB, iniA and iniC genes of mycobacteria and methods of use” (priority 1998, dated 2004).
